Measured values taken from publication PMC4303209, “A novel phosphatidylinositol 3-kinase (PI3K) inhibitor directs a potent FOXO-dependent, p53-independent cell cycle arrest phenotype characterized by the differential induction of a subset of FOXO-regulated genes” (Breast Cancer Research : BCR, 2014).

Test system: MCF-7 breast cancer cells
Test: Microarray gene expression analysis (Agilent whole human genome 4 x 44K; compound vs DMSO, LIMMA log2 fold change)
Format: cell-based
Details: Apoptosis genes

Cn1ncc2c(N3CCOCC3)nc(-c3cccc(O)c3)nc21 [ETP-45658]
PML log2FC (Gene 5371): -0.804
POLR2G log2FC (Gene 5436): 0.335
POU3F3 log2FC (Gene 5455): -0.318
POU4F1 log2FC (Gene 5457): -0.504
POU4F3 log2FC (Gene 5459): -0.263
PPARD log2FC (Gene 5467): -0.520
PPARG log2FC (Gene 5468): -0.185
PPID log2FC (Gene 5481): 0.248
PPP1CA log2FC (Gene 5499): -0.227
PPP2CA log2FC (Gene 5515): -0.322
PPP2CB log2FC (Gene 5516): -0.242
PPP2R1B log2FC (Gene 5519): -0.532
PPP2R2B log2FC (Gene 5521): 0.082
PPP2R4 log2FC (Gene 5524): -0.446
PPP2R5C log2FC (Gene 5527): 0.888
PPP3CC log2FC (Gene 5533): 0.163
PPP3R1 log2FC (Gene 5534): -0.308
PPT1 log2FC (Gene 5538): 0.432
PRF1 log2FC (Gene 5551): -0.050
PRKAA1 log2FC (Gene 5562): 0.429
PRKAA2 log2FC (Gene 5563): 0.082
PRKCA log2FC (Gene 5578): -0.217
PRKCD log2FC (Gene 5580): -0.079
PRKCE log2FC (Gene 5581): -0.042
PRKCG log2FC (Gene 5582): -0.093
PRKCH log2FC (Gene 5583): -0.256
PRKCI log2FC (Gene 5584): 0.583
PKN2 log2FC (Gene 5586): 0.510
PRKD1 log2FC (Gene 5587): 0.494
PRKCQ log2FC (Gene 5588): 0.132
PRKCZ log2FC (Gene 5590): 0.430
PRKDC log2FC (Gene 5591): 0.131
MAPK3 log2FC (Gene 5595): -0.190
MAPK7 log2FC (Gene 5598): -0.336
MAP2K6 log2FC (Gene 5608): 0.116
PRODH log2FC (Gene 5625): -0.290
LGMN log2FC (Gene 5641): -0.066
PSEN1 log2FC (Gene 5663): 0.418
PSEN2 log2FC (Gene 5664): -0.458
PSMA2 log2FC (Gene 5683): 0.460
PSMA3 log2FC (Gene 5684): 0.270
PSMA4 log2FC (Gene 5685): 0.609
PSMA6 log2FC (Gene 5687): 0.200
PSMB1 log2FC (Gene 5689): 0.085
PSMB2 log2FC (Gene 5690): -0.547
PSMB4 log2FC (Gene 5692): 0.132
PSMB5 log2FC (Gene 5693): -0.298
PSMB6 log2FC (Gene 5694): -0.120
PSMB9 log2FC (Gene 5698): -0.203
PSMB10 log2FC (Gene 5699): -0.184
PSMC1 log2FC (Gene 5700): 0.172
PSMC2 log2FC (Gene 5701): 0.576
PSMC3 log2FC (Gene 5702): -0.176
PSMC5 log2FC (Gene 5705): -0.327
PSMC6 log2FC (Gene 5706): 0.776
PSMD1 log2FC (Gene 5707): 0.397
PSMD3 log2FC (Gene 5709): -0.109
PSMD4 log2FC (Gene 5710): -0.086
PSMD5 log2FC (Gene 5711): 0.388
PSMD7 log2FC (Gene 5713): 0.182
PSMD8 log2FC (Gene 5714): -0.132
PSMD9 log2FC (Gene 5715): -0.171
PSMD10 log2FC (Gene 5716): -0.293
PSMD11 log2FC (Gene 5717): -0.214
PSMD12 log2FC (Gene 5718): -0.582
PSME1 log2FC (Gene 5720): 0.322
PTEN log2FC (Gene 5728): 1.014
PTGFR log2FC (Gene 5737): -0.039
PTGIS log2FC (Gene 5740): 0.033
PTH log2FC (Gene 5741): -0.079
PTGS2 log2FC (Gene 5743): -0.151
PTK2 log2FC (Gene 5747): 0.157
PTPN6 log2FC (Gene 5777): 0.120
PTPRC log2FC (Gene 5788): -0.053
PTPRH log2FC (Gene 5794): 0.279
RAC1 log2FC (Gene 5879): -0.258
RAD9A log2FC (Gene 5883): 0.686
RAD21 log2FC (Gene 5885): 1.043
RAG1 log2FC (Gene 5896): 0.657
RALB log2FC (Gene 5899): 0.324
RARA log2FC (Gene 5914): -0.580
RARG log2FC (Gene 5916): -0.272
RASA1 log2FC (Gene 5921): 0.488
RASGRF2 log2FC (Gene 5924): -0.240
RB1 log2FC (Gene 5925): 0.746
RELA log2FC (Gene 5970): -0.454
DPF2 log2FC (Gene 5977): 0.303
REST log2FC (Gene 5978): 0.367
ROBO1 log2FC (Gene 6091): 0.128
ROBO2 log2FC (Gene 6092): -0.056
ROCK1 log2FC (Gene 6093): 0.615
RPS3A log2FC (Gene 6189): 0.669
RPS6 log2FC (Gene 6194): 0.357
RPS6KA1 log2FC (Gene 6195): -0.234
RPS6KA3 log2FC (Gene 6197): 0.412
RPS6KB1 log2FC (Gene 6198): 0.426
RPS27A log2FC (Gene 6233): 0.401
RTKN log2FC (Gene 6242): -0.208
SORT1 log2FC (Gene 6272): 0.261
S100A8 log2FC (Gene 6279): 0.469
S100B log2FC (Gene 6285): -0.122
SATB1 log2FC (Gene 6304): 0.589
SCT log2FC (Gene 6343): -0.095
CCL2 log2FC (Gene 6347): -0.179
CCL3 log2FC (Gene 6348): -0.223
CCL5 log2FC (Gene 6352): 0.088
CCL21 log2FC (Gene 6366): -0.170
CX3CL1 log2FC (Gene 6376): -0.563
CXCL12 log2FC (Gene 6387): -0.211
MAP2K4 log2FC (Gene 6416): 0.120
SET log2FC (Gene 6418): 0.225
SFRP1 log2FC (Gene 6422): 0.214
SFRP2 log2FC (Gene 6423): -0.093
SFRP4 log2FC (Gene 6424): 0.051
SFRP5 log2FC (Gene 6425): -0.042
ITSN1 log2FC (Gene 6453): 0.278
SHB log2FC (Gene 6461): -0.876
SHH log2FC (Gene 6469): -0.209
SIAH1 log2FC (Gene 6477): 0.248
SIAH2 log2FC (Gene 6478): -0.579
STIL log2FC (Gene 6491): 0.485
SIX1 log2FC (Gene 6495): -0.507
SKI log2FC (Gene 6497): -0.663
SLC9A1 log2FC (Gene 6548): -0.600
SLIT3 log2FC (Gene 6586): -0.286
SNAI2 log2FC (Gene 6591): 0.199
SMO log2FC (Gene 6608): -0.194
SMPD1 log2FC (Gene 6609): 0.257
SMPD2 log2FC (Gene 6610): -0.399
SIGLEC1 log2FC (Gene 6614): -0.350
SNAI1 log2FC (Gene 6615): -0.710
SNCB log2FC (Gene 6620): -0.626
SNCA log2FC (Gene 6622): -0.041
SOD2 log2FC (Gene 6648): 0.179
SON log2FC (Gene 6651): -0.111
SOX2 log2FC (Gene 6657): 0.298
SOX4 log2FC (Gene 6659): 0.216
SOX9 log2FC (Gene 6662): -2.381
SOX10 log2FC (Gene 6663): -0.095
SP100 log2FC (Gene 6672): 0.968
SPI1 log2FC (Gene 6688): -0.242
SPN log2FC (Gene 6693): -0.216
SRC log2FC (Gene 6714): -0.316
SRPK2 log2FC (Gene 6733): 0.850
SST log2FC (Gene 6750): 0.289
SSTR3 log2FC (Gene 6753): -0.375
STAR log2FC (Gene 6770): -0.189
STAT1 log2FC (Gene 6772): 0.445
STAT5A log2FC (Gene 6776): 0.569
STAT5B log2FC (Gene 6777): 0.093
STK4 log2FC (Gene 6789): 0.158
STK11 log2FC (Gene 6794): -0.165
STXBP1 log2FC (Gene 6812): -0.504
SUPV3L1 log2FC (Gene 6832): 0.440
ADAM17 log2FC (Gene 6868): 0.578
TAF9 log2FC (Gene 6880): 0.363
MAP3K7 log2FC (Gene 6885): 0.181
